Read-outs that look alike come from different tables or passages of the source.
How the values were obtained:
NCp7 [1] = biological target: T1, NCp7 (Human immunodeficiency virus type 1 group M subtype B, UniProt P12493); experiment: NCp7 Trp37 fluorescence decrease assay; assay type: biochemical, HIV-1; conditions: for NCp7 Trp37 Assay, % Decrease RFU/30 min, without GSH: 50 μM
T1 construct: HIV-1 nucleocapsid protein (NCp7)

HIV-1RF [2] = experiment: XTT cytoprotection assay, anti-HIV-1 activity (EC50) in CEM-SS cells; assay type: cell-based
Description: (§1) Both the XTT and monocyte/macrophage assays were used because infection of monocyte/macrophage cultures is thought to resemble infection of the nonproliferating pool of cells in vivo, while the parameters for the CEM-SS cells (XTT assay) are thought to reflect more closely the parameters for highly proliferating cells such as bone marrow and intestinal cells. The CEM-SS cell (XTT) assay is a more sensitive indicator of toxicity and all compounds disclosed herein have been screened in this assay.
Based on these preliminary screens, it is contemplated that an aromatic or large substituent at R1 (compare entries 1 & 4, 9 & 10) and a small substituent at R2 (compare entries 1, 2, & 3; 7, 8, & 9) may be best for anti-HIV-1 activity. Sulfur heterocycles containing more than 6 atoms don't appear to be active (entries 13 & 14). […] As observed for 8 previously (Rice et al., 1997), anti-HIV-1 activity and toxicity of 53a went down when treated with 2 equivalents of GSH (entry 6).

CEM-SS cells [3] = experiment: XTT assay, toxicity (IC50) in CEM-SS cells; assay type: cell-based; conditions: for IC50: Homo sapiens, CEM-SS, Table 3, read-out: XTT Anti-HIV-1 Assay IC50
Description: as §1

[4] = tested on: GST alpha mRNA in BNL.CL2 cells; experiment: GST alpha mRNA induction, Northern blot; assay type: cell-based, mouse; conditions: for activation at 100 µM: Mus musculus, BNL CL.2, BNL.CL2 cells, 100 micromolar, read-out: increase in GST alpha mRNA levels; for activation at 100 µM / GST α induction (mRNA): 24 hours; for inducing activity (GST, NQO1 and Ferritin H): in words; for GST α induction (mRNA): 80 μM, Northern blot
Description: (§2) BNL.CL2 cells were treated with Oltipraz, compound 121 described above, and compound 123 described above. All compounds were applied to the cells at 100 micromolar concentration for 24 hours.
(§3) Cells were exposed to compounds at a final concentration of 80 μM for 24 hours. RNA was isolated and analyzed by Northern blotting for the expression of the indicated genes. Control cells were incubated with vehicle alone (0.4% DMSO).
(§4) Northern blot: Treatment of BNL.CL2 cells with 100 μM Oltipraz, ALH-556, and ALH-562, ALH-561, ED 13.4, ED 14.6, DCF 070, ALH-490
(§5) BNL.CL2 cells (normal mouse embryonic liver cell line) were plated at ~3×10^5 cells/ml, grown for 16-24 hours, and treated with 0 μM and 100 μM Oltipraz, ALH-556 (121), and ALH-562 (123) for 24 hours. All three compounds were dissolved in DMSO and the final DMSO concentration present in all treatment conditions was 0.2%. BNL.CL2 cells were harvested by trypsinization and total RNA was isolated using the Trizol reagent (Gibco BRL) according to the manufacturer's procedures. 15 μg of RNA were run on a 1.1% agarose/6.6% formaldehyde gel and transferred overnight onto nitrocellulose membranes by capillary transfer using 20×SSC as transfer buffer. Subsequent to RNA transfer, the nitrocellulose membrane was baked at 80° C. for 2 hours. RNA was analyzed using a radiolabeled mouse ferritin H and human GST-α c-DNA. A human β-actin probe was used as an internal standard. The c-DNA probes were labeled with [α^32 P]dCTP by a random prime labeling. Hybridization of the c-DNA probes to the nitrocellulose membrane was performed at 68° C. for 60 minutes using the Quick-Hyb solution (Stratagene). Membranes were subjected to phosphoimager analysis after hybridization.

[5] = tested on: DT-diaphorase (NQO1) mRNA; experiment: NQO1 mRNA induction, Northern blot; assay type: cell-based, mouse; conditions: 80 μM, 24 hours
Description: as §2, §3, §4, §5

Ferritin H mRNA = Ferritin H mRNA induction, Northern blot; assay type: cell-based, mouse; conditions: 80 μM, 24 hours
Description: as §2, §3, §4, §5

[6] = tested on: GST alpha mRNA in BNL.CL2 cells; experiment: GST alpha mRNA induction, Northern blot; assay type: cell-based, mouse; conditions: 48 and 72h post treatment, in words
NCp7 protein = conditions: cited from earlier work; for ejection of zinc from NCp7: in words; for TSQ NCp7 Assay: unit not given
HIV-1RF [7] = conditions: cited from earlier work; for EC50: CEM-SS cells, HIV-1RF, read-out: XTT assay EC50; for activity against HIV-1 in XTT-based cytoprotection assay: in words
HIV-1ADA = conditions: fresh human monocyte/macrophage cultures, cited from earlier work; for activity against replication of monocytotropic HIV-1ADA: in words; for EC50: HIV-1ADA
CEM-SS cells [8] = conditions: toxicity, CEM-SS cells; read-out: XTT assay IC50; cited from earlier work
GST [9] = conditions: mice; cited from earlier work
GST [10] = conditions: rats; cited from earlier work
NCp7 [11] = biological target: T2, NCp7 (Human immunodeficiency virus type 1 group M subtype B, UniProt P04591); conditions: DFT calculation (Maynard et al., 1998); cited from earlier work
T2 construct: HIV-1 nucleocapsid protein (NCp7)

NCp7 [12] = biological target: T1, NCp7; conditions: 50 μM, reference compounds; cited from earlier work
[13] = tested on: fresh human monocyte/macrophage cultures; conditions: toxicity; cited from earlier work
[14] = tested on: glutathione-S-transferase (GST); conditions: cited from earlier work
[15] = Human immunodeficiency virus 1, CEM-SS, Table 3, read-out: XTT Anti-HIV-1 Assay EC50
[16] = Human immunodeficiency virus 1, CEM-SS, read-out: Maximum cytoprotection

CCOC(=O)C1=C(c2ccccc2)S(=O)OC1 (centres unmarked) [(8) 53g]
NCp7 Trp37 Assay, % Decrease RFU/30 min, without GSH (NCp7 [1]): 26 % Decrease RFU/30 min
Emax at 100 µM (HIV-1RF [2]; Human immunodeficiency virus 1, CEM-SS, @ 100 μM, read-out: Maximum cytoprotection): 12%
IC50 (CEM-SS cells [3]): 213 µM

COc1ccc(C2=C(C)COS2=O)cc1 (centres unmarked) [compound 121, 4-Methyl-5-(4-methoxy)phenyl-1,2-oxathiol-4-en-1-yl Oxide]
activation at 100 µM [4]: 300%
inducing activity (GST, NQO1 and Ferritin H) [4]: high levels of inducing activity

CC1=C(C2=CCCCC2)[S+]([O-])SC1 (centres unmarked) [ED 14.6]
NQO1 induction (mRNA) [5]: +
Ferritin H induction (mRNA) (Ferritin H mRNA): +
GST α induction (mRNA) [4]: +

CC1=C(C2=CCCCC2)S(=O)OC1 (centres unmarked) [compound 123, 4-methyl-5-cyclohexenyl-1,2-oxathiol-4-en-1-yl oxide]
NQO1 induction (mRNA) [5]: +
time course of GST levels [6]: slight additional increases in GST levels
Ferritin H induction (mRNA) (Ferritin H mRNA): +
GST α induction (mRNA) [4]: +
activation at 100 µM [4]: 430%
inducing activity (GST, NQO1 and Ferritin H) [4]: high levels of inducing activity

COC(=O)C1=C(c2ccccc2)[S+]([O-])SC1 (centres unmarked) [53a]
NCp7 Trp37 Assay, % Decrease RFU/30 min, with GSH (NCp7 [1]; 50 μM with GSH): 16.7 % Decrease RFU/30 min
NCp7 Trp37 Assay, % Decrease RFU/30 min, without GSH (NCp7 [1]): 13.5 % Decrease RFU/30 min
zinc ejecting ability with GSH (NCp7 [1]; GSH, in words): little effected by GSH
anti-HIV-1 activity with GSH (HIV-1RF [2]; 2 equivalents of GSH, in words): went down
EC50 (HIV-1RF [2]; Human immunodeficiency virus 1, CEM-SS, + GSH, 2 equivalents, read-out: XTT Anti-HIV-1 Assay EC50 with GSH): 17.3 µM
EC50 (HIV-1RF [2]; [15]): 6 µM
EC50 relative to the best dithiane (8, NSC 624151) (HIV-1RF [2]; in words): below that of the best dithiane
cytoprotection / anti-HIV-1 activity (HIV-1RF [2]; in words): possess anti-HIV-1 activity
toxicity with GSH (CEM-SS cells [3]; 2 equivalents of GSH, in words): went down
IC50 (CEM-SS cells [3]): 18 µM

CCOC(=O)C1=C(c2ccccc2)[S+]([O-])SC1 (centres unmarked) [53b]
NCp7 Trp37 Assay, % Decrease RFU/30 min, without GSH (NCp7 [1]): 6.5 % Decrease RFU/30 min
Emax at 10 µM (HIV-1RF [2]; [16]): 31.6%
IC50 (CEM-SS cells [3]): 45.7 µM

COC(=O)C1=C(C)S(=O)OC1 (centres unmarked) [(10) 53g]
NCp7 Trp37 Assay, % Decrease RFU/30 min, without GSH (NCp7 [1]): 0.2 % Decrease RFU/30 min
Emax at 3.2 µM (HIV-1RF [2]; Human immunodeficiency virus 1, CEM-SS, @ 3.2 μM, read-out: Maximum cytoprotection): 32.6%
IC50 (CEM-SS cells [3]): 5.3 µM

O=S1(=O)CC(CO)(CO)CS1 [compound 6]
ejection of zinc from NCp7 (NCp7 protein): promoted ejection of zinc
EC50 (HIV-1RF [7]): 34 µM
activity against HIV-1 in XTT-based cytoprotection assay (HIV-1RF [7]): active
activity against replication of monocytotropic HIV-1ADA (HIV-1ADA): active
IC50 (CEM-SS cells [8]): 200 µM

C=CCS[S+]([O-])CC=C (centres unmarked) [allicin]
elevation of GST levels (GST [9]): elevate levels of GST
elevation of GST levels (GST [10]): elevate levels of GST

NC(=O)c1cccc(N=O)c1 [NOBA, 3-nitrosobenzamide]
ejection of zinc from NCp7 (NCp7 protein): reacted with the zinc fingers of NCp7 causing zinc ejection

COC(=O)C1=C(C2=CCCCC2)[S+]([O-])SC1 (centres unmarked) [ED 13.4]
NQO1 induction (mRNA) [5]: +
Ferritin H induction (mRNA) (Ferritin H mRNA): +
GST α induction (mRNA) [4]: +

CC1=C(c2ccccc2)S(=O)OC1 (centres unmarked) [53f]
NCp7 Trp37 Assay, % Decrease RFU/30 min, without GSH (NCp7 [1]): 0 % Decrease RFU/30 min
EC50 (HIV-1RF [2]; [15]): 5.9 µM
EC50 relative to the best dithiane (8, NSC 624151) (HIV-1RF [2]; in words): below that of the best dithiane
cytoprotection / anti-HIV-1 activity (HIV-1RF [2]; in words): possess anti-HIV-1 activity
IC50 (CEM-SS cells [3]): 16.9 µM

CC(C)OC(=O)C1=C(c2ccccc2)[S+]([O-])SC1 (centres unmarked) [53c]
NCp7 Trp37 Assay, % Decrease RFU/30 min, without GSH (NCp7 [1]): 17.1 % Decrease RFU/30 min
Emax at 10 µM (HIV-1RF [2]; [16]): 43.3%
IC50 (CEM-SS cells [3]): 15.2 µM

CC(=O)NS(=O)(=O)c1ccc(NC(=O)c2ccccc2SSc2ccccc2C(=O)Nc2ccc(S(=O)(=O)NC(C)=O)cc2)cc1 [3, R'=C(O)NH-phenyl-SO2 NHC(O)CH3]
ratio of electronegativity to hardness (.chi.^2 /.eta.) (NCp7 [11]): 0.3098

CC(=O)OCC1(COC(C)=O)CSS(=O)(=O)C1 [compound 7]
NCp7 Trp37 Assay, % Decrease RFU/30 min, without GSH (NCp7 [12]): 18 % Decrease RFU/30 min
IC50 [13]: > 100 µM
ejection of zinc from NCp7 (NCp7 protein): promoted ejection of zinc
TSQ NCp7 Assay (NCp7 protein): 18
EC50 (HIV-1RF [7]): 9.8 µM
activity against HIV-1 in XTT-based cytoprotection assay (HIV-1RF [7]): active
EC50 (HIV-1ADA): 21 µM
activity against replication of monocytotropic HIV-1ADA (HIV-1ADA): active
IC50 (CEM-SS cells [8]): 30 µM

O=S1(=O)OCC=C1c1ccccc1 [ALH-490]
NQO1 induction (mRNA) [5]: +
Ferritin H induction (mRNA) (Ferritin H mRNA): +
GST α induction (mRNA) [4]: +

NS(=O)(=O)c1ccc(NC(=O)c2ccccc2SSc2ccccc2C(=O)Nc2ccc(S(N)(=O)=O)cc2)cc1 [3, R'=C(O)NH-phenyl-SO2 NH2]
ratio of electronegativity to hardness (.chi.^2 /.eta.) (NCp7 [11]): 0.2935

CC(C)(C)c1cc(O)ccc1O [t-BHQ]
NQO1 induction (mRNA) [5]: +
Ferritin H induction (mRNA) (Ferritin H mRNA): +
GST α induction (mRNA) [4]: +

COC(=O)C1=C(C)[S+]([O-])SC1 (centres unmarked) [53d]
NCp7 Trp37 Assay, % Decrease RFU/30 min, without GSH (NCp7 [1]): 14.3 % Decrease RFU/30 min
Emax at 10 µM (HIV-1RF [2]; [16]): 41.4%
IC50 (CEM-SS cells [3]): 16.9 µM

COC(=O)C1=C(c2ccccc2)[S+]([O-])SC1 (centres unmarked) [DCF 070]
NQO1 induction (mRNA) [5]: +
Ferritin H induction (mRNA) (Ferritin H mRNA): +
GST α induction (mRNA) [4]: +

COC(=O)C1=C(c2ccccc2)S(=O)OC1 (centres unmarked) [53h]
NCp7 Trp37 Assay, % Decrease RFU/30 min, without GSH (NCp7 [1]): 0 % Decrease RFU/30 min
Emax at 10 µM (HIV-1RF [2]; [16]): 29%
IC50 (CEM-SS cells [3]): 22.5 µM

O=S1(=O)C[C@@H](O)[C@H](O)CS1 (relative stereo) [compound 9]
IC50 [13]: > 100 µM
ejection of zinc from NCp7 (NCp7 protein): promoted ejection of zinc
TSQ NCp7 Assay (NCp7 protein): 20
EC50 (HIV-1RF [7]): 13 µM
activity against HIV-1 in XTT-based cytoprotection assay (HIV-1RF [7]): active
EC50 (HIV-1ADA): 9.1 µM
activity against replication of monocytotropic HIV-1ADA (HIV-1ADA): active
ratio of electronegativity to hardness (.chi.^2 /.eta.) (NCp7 [11]): 0.2260
IC50 (CEM-SS cells [8]): 135 µM

N[C@@H](CCC(=O)N[C@@H](CS)C(=O)NCC(=O)O)C(=O)O [glutathione]
pKa of the thiol ([14]; bound to GST): ~ 6.5
pKa of the thiol ([14]; without enzyme binding): 9.0

CC1=C(C(=O)OC(C)C)CS[S+]1[O-] (centres unmarked) [53e]
NCp7 Trp37 Assay, % Decrease RFU/30 min, without GSH (NCp7 [1]): 10.4 % Decrease RFU/30 min
Emax at 10 µM (HIV-1RF [2]; [16]): 40%
IC50 (CEM-SS cells [3]): 18.4 µM

From patent US6242478A, “Five member ring sulfenate esters and thiosulfinate esters” (Wake Forest University, priority 1999, dated 2001)
